For experiment [1], the system named is GH-omas (tumoral pituitary cells). Kind of experiment: free cytosolic calcium kinetics ([Ca^2+]i), GH-oma cells. Type of experiment: cell-based, human. The protocol:
(§1) Pituitary adenoma specimens were dispersed into single cells by enzymatic and mechanical disruption and cultured onto tissue culture plates in serum containing medium, as previously described. Briefly, pituitary samples were resected by endoscopic transsphenoidal surgery and transferred to sterile cold (4°C) culture medium (S-MEM, Gibco, Madrid, Spain) supplemented with 0.1% BSA, 0.01% L-glutamine, 1% antibiotic-antimycotic solution, and 2.5% HEPES. Samples were minced under sterile conditions into 1–2 mm^3 pieces. Some pieces were stored at −80°C for posterior RNA isolation and, when possible, the remaining tissue samples were washed and incubated in 30 mL S-MEM medium supplemented 0.3% trypsin (Beckson, Dickinson and Company, Sparks, MD, USA) in a spinner flask (Bellco Glass, Vineland, NJ, USA) for 2 h of gentle shaking at 37°C and then, incubation was continued for another 5 min in presence of 1 mg of DNAse I (Roche, Mannheim, Germany). Dispersed cells were decanted by centrifugation and then, by repeated aspiration into a smoothtipped glass Pasteur pipette. […]
(§2) As previously reported, changes in [Ca^2+]i in single cells were measured using fura-2AM (50,000 cells/coverslip; Molecular Probes, Eugene, OR)[23][30]. […] Cells were examined for changes in [Ca^2+]i after the appropriate treatment (native ghrelin, In1-19 or In1-40) using a 40× objective with Immersion Oil Type NF (Nikon, Tokyo, Japan) while exposed to alternating 340–380 nm light beams, and the intensity of light emission at 505 nm was measured every 5 seconds using MetaFluor Software (Imaging Corp., West Chester, PA, USA). […] Changes in [Ca^2+]i in CHO-K1 cell line expressing recombinant GHSR1a or GHSR1b receptor were measured using Calcium 4 Explorer Kit (Molecular Devices, Sunnyvale, CA, USA). […] Fluorescent signals were then monitored using the FLIPR Tetra (Molecular Devices, Sunnyvale, CA, USA) during which cells were stimulated with compounds. Dose-response curves were analyzed using GraphPad Prism v5.04 (La Jolla, CA, USA).

Experiment [2] deals with ACTH-omas (tumoral pituitary cells). Kind of experiment: free cytosolic calcium kinetics ([Ca^2+]i), ACTH-oma cells. Type of experiment: cell-based, human. The procedure:
as §1, §2

The subject of experiment [3] is NFPA (tumoral pituitary cells). Kind of experiment: free cytosolic calcium kinetics ([Ca^2+]i), NFPA cells. Type of experiment: cell-based, human. The procedure: as §1, §2
Experiment [4] has as its system PRL-omas (tumoral pituitary cells). Kind of experiment: free cytosolic calcium kinetics ([Ca^2+]i), PRL-oma cells. Type of experiment: cell-based, human. Conditions: fura-2AM. The protocol: Pituitary adenoma specimens were dispersed into single cells by enzymatic and mechanical disruption and cultured onto tissue culture plates in serum containing medium, as previously described. Briefly, pituitary samples were resected by endoscopic transsphenoidal surgery and transferred to sterile cold (4°C) culture medium (S-MEM, Gibco, Madrid, Spain) supplemented with 0.1% BSA, 0.01% L-glutamine, 1% antibiotic-antimycotic solution, and 2.5% HEPES. Samples were minced under sterile conditions into 1–2 mm^3 pieces. […]
as §2, with “Dose-response curves were analyzed using GraphPad Prism v5.04 (La Jolla, CA, USA).” left out

Experiment [5] concerns AtT-20 cell line. Kind of experiment: ACTH secretion from AtT-20 cell line. Type of experiment: cell-based, mouse. Particulars: 4 h, 3–5 independent experiments. The procedure:
(§3) The mouse corticotroph pituitary derived cell line AtT-20/D16v-F2 (ATCC® CRL-1795) was cultured and maintained in Dulbecco's Modified Eagle's Medium (DMEM) complemented with 10% FBS, 100 U/ml penicillin/streptomycin, 0.024 M of 2-(4(2-hydroxyethyl)-1-piperazine)-ethane sulfonic acid (HEPES), and maintained at 37°C and 5% CO2, under sterile conditions. CHO-K1 cell line(ATCC® CCL-61) expressing recombinant human GHSR1a (GenBank accession number U60179) or GHSR1b (GenBank accession number U60181) were cultured and maintained in Ham's F12 media (Corning #10-080-CV) supplemented with 10% FBS, 2 mM L-Glutamine and 0.4 mg/mL Geneticin.
To examine the effects of ghrelin system components (4- and/or 24 h-incubation) on pituitary hormone release from primary pituitary adenoma and/or AtT-20 cell line, 100,000–200,000 cell/well were used. As previously reported, hormone concentrations were measured in the culture media derived from human samples according to the pituitary adenoma type using commercial ELISAs [growth hormone, GH; adrenocorticotropin, ACTH; and prolactin, PRL (reference numbers: EIA-3552, EIA-3647 and EIA-1291, respectively; DRG, Mountainside, NJ, USA)] following the manufacturer's instructions. All the information regarding specificity, detectability, and reproducibility for each of the assays can be accessed at the web site of the company.

The next experiment deals with GH-omas. Kind of experiment: cell viability of GH-oma primary cultures, peptide treatment. Particulars: 100 nM, alamar-blue. Type of experiment: cell-based, human. The procedure:
Pituitary adenoma specimens were dispersed into single cells by enzymatic and mechanical disruption and cultured onto tissue culture plates in serum containing medium, as previously described. Briefly, pituitary samples were resected by endoscopic transsphenoidal surgery and transferred to sterile cold (4°C) culture medium (S-MEM, Gibco, Madrid, Spain) supplemented with 0.1% BSA, 0.01% L-glutamine, 1% antibiotic-antimycotic solution, and 2.5% HEPES. Samples were minced under sterile conditions into 1–2 mm^3 pieces. Some pieces were stored at −80°C for posterior RNA isolation and, when possible, the remaining tissue samples were washed and incubated in 30 mL S-MEM medium supplemented 0.3% trypsin (Beckson, Dickinson and Company, Sparks, MD, USA) in a spinner flask (Bellco Glass, Vineland, NJ, USA) for 2 h of gentle shaking at 37°C and then, incubation was continued for another 5 min in presence of 1 mg of DNAse I (Roche, Mannheim, Germany). Dispersed cells were decanted by centrifugation and then, by repeated aspiration into a smoothtipped glass Pasteur pipette. Cells suspensions were washed once in 4.5 g/L glucose containing DMEM medium (Gibco, Madrid, Spain) supplemented with 0.1% BSA, 0.01% L-glutamine, 1% antibiotic-antimycotic solution, and 2.5% HEPES. Cell number and viability was estimated by the Trypan blue exclusion test in Neubauer chamber, where viability was always 90–100%.
(§4) As previously reported, cell viability was estimated using alamar-blue reagent (10,000 cells/well-plate; Biosource International, Camarillo, CA, USA)[30][50][52]. Briefly, cells were serum-starved for 12–16 h before the measurements and treated with serum-free medium containing 10% alamar-blue for 3 h. Reduction of alamar-blue reagent was quantified exciting at 560 nm and reading at 590 nm using the FlexStation III system (Molecular Devices, Sunnyvale, CA, USA). Subsequently, media was replaced by serum-containing alamar-blue free medium and incubated for additional 24–72 h, measuring the alamar-blue reduction every 24 h. […]
For orientation: Resazurin is reduced to fluorescent resorufin, in cell work by metabolically active cells.

Experiment [6] has as its system AtT-20 cell line. Description: cell viability of AtT-20 cell line. Conditions: alamar-blue, 3–5 independent experiments, IGF-1 and Paclitaxel as controls. Type of experiment: cell-based, mouse. The protocol: as §3, §4
The next experiment has as its system PRL-omas. Particulars: previous studies; cited from earlier work. From the text:
Conversely, In1-ghrelin peptides only elicited [Ca^2+]i responses in a negligible percentage of PRL-oma cells, which is in accordance with the lack of effect of these peptides in the modulation of PRL release. However, In1-40 but not In1-19 p ...

For experiment [7], the system named is GHSR-lacking cells (e.g. prostate cell lines). Conditions: cited from earlier work.
Setting [8] is: proportion of responsive cells, fura-2AM single-cell imaging.

The values that follow come from PMC4649711, “In1-ghrelin splicing variant is overexpressed in pituitary adenomas and increases their aggressive features” (Scientific Reports, 2015).

The structures appear in SMILES notation. Values joined by “and” are separate entries in the source; they are usually repeats but may differ in a detail not shown here. Equal entries are not always repeated. “Also recorded” adds a separate entry of the source.

`CCCCCCCC(=O)OC[C@H](NC(=O)[C@H](CO)NC(=O)CN)C(=O)N[C@@H](Cc1ccccc1)C(=O)N[C@@H](CC(C)C)C(=O)N[C@@H](CO)C(=O)N1CCC[C@H]1C(=O)N[C@@H](CCC(=O)O)C(=O)N[C@@H](Cc1c[nH]cn1)C(=O)N[C@@H](CCC(N)=O)C(=O)N[C@@H](CCCNC(=N)N)C(=O)N[C@H](C(=O)N[C@@H](CCC(N)=O)C(=O)N[C@@H](CCC(N)=O)C(=O)N[C@@H](CCCNC(=N)N)C(=O)N[C@@H](CCCCN)C(=O)N[C@@H](CCC(=O)O)C(=O)N[C@@H](CO)C(=O)N[C@@H](CCCCN)C(=O)N[C@@H](CCCCN)C(=O)N1CCC[C@H]1C(=O)N1CCC[C@H]1C(=O)N[C@@H](C)C(=O)N[C@@H](CCCCN)C(=O)N[C@@H](CC(C)C)C(=O)N[C@@H](CCC(N)=O)C(=O)N1CCC[C@H]1C(=O)N[C@@H](CCCNC(=N)N)C(=O)O)C(C)C` [AG]: the “[Ca^2+]i response (in words)” value in [1] (fura-2AM) was “doubling the [Ca^2+]i levels; also recorded: increased [Ca^2+]i”; in [2] (fura-2AM), “doubling the [Ca^2+]i levels”; in experiment [3] (NFPAs, fura-2AM), “a subset of NFPA cells is responsive”; in experiment [4], “only a low proportion of these pituitary adenoma cells altered their [Ca^2+]i”. The “% cell resp.” value in experiment [1] (setting [8]) was 74%; in [2] (setting [8]), 74% and 74.1%; in experiment [3] (NFPA, proportion of responsive cells, fura-2AM single-cell imaging), 29% and 29.4%. The “# samples” value in experiment [1] (responsive/tested samples, fura-2AM single-cell imaging, 1500 / 983 / 520 cells analyzed for AG / In1-19 / In1-40, peptides 100 nM (abstract)) is recorded as 27/27; in [2] (responsive/tested samples, fura-2AM, 742 / 230 / 143 cells analyzed for AG / In1-19 / In1-40, peptides 100 nM (abstract)), 9/9; in [3] (NFPA, responsive/tested samples, fura-2AM, 408 / 367 / 29 cells analyzed for AG / In1-19 / In1-40, peptides 100 nM (abstract)) it was 9/15; in experiment [4] (responsive/tested samples, 217 / 160 / 88 cells analyzed for AG / In1-19 / In1-40, peptides 100 nM (abstract)) it was 2/6. Moreover, the “basal ACTH release” value in the experiment with AtT-20 cell line [5] is reported as “did not significantly alter basal ACTH release”. Besides, the cell viability result was “significantly increased” in the experiment with GH-omas (48 h, n = 5–17); “significantly increased” in the experiment with GH-omas (72 h, n = 5–17); “modestly increased GH-oma cell viability” in the experiment on GH-omas (time not given); “did not alter cell viability” with AtT-20 cell line [6]. The PRL secretion result in the experiment on PRL-omas is “increases PRL secretion”. The “responses in GHSR-lacking cells” value in experiment [7] is “have been found in GHSR-lacking cells”.
